We go through eight molecules from patent EP1674457B1, “Derivatives of squaric acid with anti-proliferative activity” (GPC Biotech AG, priority 2004, dated 2006).

In test [1] the test system is A2780. Nature of the test: SRB assay, inhibition of tumor cell growth at 1 µM (Example 61). The class given is cell-based, Human. Conditions: Homo sapiens, 48 hours. On the procedure: (§1) 3,000-15,000 cells/well were exposed to the test compounds at a concentration of 1 µM for 48 hours, and cytotoxicty was measured using the SRB assay according to Shekan et al (J Natl Cancer Inst (1990) 82, 1107-112). Briefly, cells were plated in 96 well dishes 24 hours prior to compound addition. The assay was terminated with the addition of cold TCA to a final concentration of 10% and the plates were incubated for one hour at 4°C. The plates were then washed 5 times with water and 100µl of a Sulforhodamine B solution (4%) was added to each well. The plate was then incubated for 10 minutes at room temperature before removal of unbound dye by washing with 1% acetic acid. The bound dye was solubilized with 10 mM Trizma base and the absorbance read at OD570. Inhibitory activity of the compounds was calculated as % inhibition compared to cells treated with the solvent (DMSO). Table 2 represents the growth inhibitory activity of certain compunds of the invention across a number of tumor cell lines.

The test system of test [2] is HCT-116. Nature of the test: IC50 determination by SRB assay (Example 62). Format: cell-based. Conditions: Homo sapiens, HCT-116; HCY-116. The protocol:
as §1
(§2) The assay was performed similar to example 61. However, test compounds were added at various concentrations, such as from 0.001 to about 0.1 µM, from 0.1 to about 10 µM, or from 1 to about 10 µM, as the need may be, in order to estimate the IC50 values. IC50 values were determined by plotting the percentage inhibitory activity for each concentration, fitting a curve using appropriate software and estimating the concentration at which 50% inhibition of growth would occur.

Test [3] deals with SW-620. As to the kind of experiment: IC50 determination by SRB assay (Example 62). The class given is cell-based. Conditions: Homo sapiens. On the procedure: as §1, §2
(In general: Sulforhodamine B stains cellular protein and so reports cell mass.)

The subject of test [4] is A-549. As to the kind of experiment: IC50 determination by SRB assay (Example 62). The class given is cell-based. Conditions: Homo sapiens, A549. On the procedure:
as §1, §2

In test [5] the test system is MCF7. Nature of the test: IC50 determination by SRB assay (Example 62). The class given is cell-based. Conditions: Homo sapiens. On the procedure:
as §1, §2

Test [6] deals with HCT-116. Nature of the test: SRB assay, inhibition of tumor cell growth at 1 µM (Example 61). The class given is cell-based. Conditions: Homo sapiens, 48 hours. On the procedure: as §1
Test [7] has as its system SW-620. Described as above. Format: cell-based. Conditions: Homo sapiens, 48 hours. On the procedure:
as §1

Test [8] concerns PC-3. The test is described as above. Format: cell-based. Conditions: Homo sapiens, 48 hours. On the procedure:
as §1

In test [9] the test system is A-549. The description is as above. Format: cell-based. Conditions: Homo sapiens, A549, 48 hours. The protocol:
as §1

Test [10] relates to PC-3. As to the kind of experiment: IC50 determination by SRB assay (Example 62). Format: cell-based. Conditions: Homo sapiens. On the procedure: as §1, §2
Test [11] relates to A2780. Nature of the test: IC50 determination by SRB assay (Example 62). Format: cell-based. Conditions: Homo sapiens. The protocol: as §1, §2
Test [12] relates to MCF7. As to the kind of experiment: SRB assay, inhibition of tumor cell growth at 1 µM (Example 61). The class given is cell-based. Conditions: Homo sapiens, 48 hours. The protocol: as §1

The structures appear in SMILES notation. A value given as a limit tells only on which side of the number the result lay.

For `Cc1ccc(OCCCCCCNc2c(Nc3cccnc3)c(=O)c2=O)cc1` [SQ-4], the inhibition (as a rule, the percentage by which the read-out fell short of the control) at 1 µM in test [1] is greater than 80%; in test [6], greater than 80%; in [7], greater than 50%; in [8] it was greater than 50%; in test [9] it was greater than 50%. The IC50 (usually the concentration that inhibits the measured activity by half) in test [2] is less than 100 nM; in test [3] it was less than 2000 nM; in test [4], less than 500 nM; in test [5], less than 10000 nM.
For `O=c1c(NCCCCCCOc2ccc(CN3CCOCC3)cc2)c(Nc2cccnc2)c1=O` [SQ-39, 3-(6-[4-(Morpholinomethyl)-phenoxy]-hexylamino)-4-(pyridin-3-yl-amino)-3-cyclobutene-1,2-dione], the inhibition at 1 µM was greater than 80% in [1]; greater than 80% in test [6]; greater than 20% in test [7]; greater than 20% in test [8]; greater than 50% in test [9]; greater than 5% in test [12]. In addition, the 50% inhibitory concentration (IC50) in [2] was less than 20 nM; in test [10] it was less than 100 nM; in test [11], less than 20 nM.
In the case of `O=c1c(NCCCCCCSc2ccc(Cl)cc2)c(Nc2ccncc2)c1=O` [SQ-27, 3-[6-(4-Chlorophenylsulfanyl)-hexylamino]-4-(pyridin-4-yl-amino)-cyclobut-3-ene-1,2-dione], the inhibition at 1 µM in test [1] was greater than 80%; in [6] it was greater than 80%; in test [7], greater than 20%; in test [8] it was greater than 50%; in test [9], greater than 50%; in test [12] it was greater than 20%. Moreover, the half-inhibitory concentration (IC50) is less than 100 nM in [2], less than 500 nM in [3] and less than 2000 nM in [4].
`O=c1c(NCCCCCCOc2ccccc2)c(Nc2cccnc2)c1=O` [SQ-3]: the inhibition at 1 µM was greater than 80% in test [1]; greater than 80% in test [6]; greater than 50% in [7]; greater than 50% in [8]; greater than 50% in test [9]; greater than 5% in [12]. Moreover, the IC50 in test [2] was less than 100 nM; in test [3], less than 500 nM; in test [4], less than 500 nM; in test [5], less than 10000 nM.
`O=c1c(NCCCCCCOc2ccc(OCCN3CCOCC3)cc2)c(Nc2ccncc2)c1=O` [SQ-23, 3-[6-(4-(2-Morpholin-4-yl-ethoxy)-phenoxy)-hexylamino]-4-(pyridin-4-yl-amino)-cyclobut-3-ene-1,2-dione]: the inhibition at 1 µM in test [1] was greater than 80%; in test [6] it was greater than 80%; in [7], greater than 20%; in test [8] it was greater than 50%; in test [9], greater than 50%. Moreover, the IC50 in test [2] was less than 20 nM; in [10], less than 20 nM; in test [4], less than 20 nM; in test [5] it was less than 500 nM; in test [11] it was less than 20 nM.
Consider `O=c1c(NCCCCCCOc2ccccc2)c(Nc2ccncc2)c1=O` [SQ-12, 3-(6-Phenoxyhexylamino)-4-(pyridin-4y1-amino)-3-cyclobutene-1,2-dione], for which the inhibition at 1 µM in test [1] is greater than 80%; in test [6], greater than 80%; in test [7], greater than 20%; in [8] it was greater than 50%; in test [9], greater than 50%; in test [12], greater than 20%. The half-inhibitory concentration (IC50) in [2] was less than 20 nM; in test [4], less than 2000 nM; in test [5] it was less than 10000 nM; in [11], less than 20 nM.
Turning to `O=c1c(NCCCCCCOc2ccc(OCCN3CCOCC3)cc2)c(Nc2cccnc2)c1=O` [SQ-24, 3-[6-(4-(2-Morpholin-4-yl-ethoxy)-phenoxy)-hexylamino]-4-(pyridin-3-yl-amino)-cyclobut-3-ene-1,2-dione], the inhibition at 1 µM is greater than 80% in [1]; greater than 80% in [6]; greater than 20% in test [7]; greater than 50% in [8]; greater than 50% in test [9]; greater than 20% in test [12]. The IC50 in test [2] is less than 20 nM; in test [3], less than 2000 nM; in [10], less than 100 nM; in [4], less than 100 nM; in test [11], less than 20 nM.
With `O=c1c(NCCCCCCCc2ccccc2)c(Nc2ccncc2)c1=O` [SQ-22, 3-(7-Phenylheptylamino)-4-(pyridin-4-yl-amino)-cyclobut-3-ene-1,2-dione], the inhibition at 1 µM in test [1] is greater than 80%; in [6], greater than 80%; in test [7] it was greater than 50%; in [8], greater than 50%; in test [9], greater than 50%; in test [12], greater than 20%. Further, the half-inhibitory concentration (IC50) in [2], in test [10] and in [11] was less than 20 nM throughout.
